Experimental data as given in patent US6782895B2, “Compositions comprising at least one hydroxide compound and at least one complexing agent, and methods for using the same” (L'Oreal, S.A., priority 2001, dated 2004).
Counter-ions that a name gives are not always drawn. Like-named read-outs stand apart in the source and are kept apart here.

How the values were obtained:
Solubility = type: physicochemical
[1] = Relaxing efficiency (% RE) of hair swatch after treatment, 24 hours at 90% RH
Method: A naturally kinky hair swatch was relaxed using a composition comprising at least one hydroxide composition comprising at least one hydroxide compound and at least one activating composition comprising at least one complexing agent according to the present invention. The relaxed hair swatch was then rinsed, shampooed, and then placed in the humidity chamber at 90% Relative Humidity (% RH) for 24 hours. The percent Relaxing Efficiency (% RE) is defined as:
Lf=length of the relaxed hair after 24 hours at 90% RH
Lt=length of the hair at the straight configuration
This mucic acid sodium salt slurry was mixed with 6 g of a 7% calcium hydroxide cream. The calcium hydroxide cream contained the following ingredients by weight, relative to the total weight of the cream:
The mixture of mucic acid sodium salt slurry and calcium hydroxide cream was applied to naturally kinky hair for 30 minutes. The treated hair was shampooed and then placed in a humidity chamber at 90% RH for 24 hours.

[2] = for Appearance / pH: 3 g VERSENE 220 in 97 g water
Method: The present invention also provides for a simple screening test, which may be used to determine the applicability of a complexing agent for use as the at least one complexing agent in the lanthionizing compositions of the present invention.
A screening test to determine the applicability of a complexing agent for use in the lanthionizing compositions of the present invention was carried out.

[3] = Generation of hydroxide ions from mucic acid sodium salt slurry and calcium hydroxide (pH measurement); type: physicochemical; conditions: 7 g mucic acid + 2.66 g sodium hydroxide slurry
Method: An incremental amount of calcium hydroxide was then added slowly to the slurry of mucic acid sodium salt, and the pH was measured.

O=C(O)C(O)C(O)C(O)C(O)C(=O)O (stereo not shown) [Mucic Acid, 1,2,3,4-tetrahydroxy-1,4-butane dicarboxylic acid]
solubility in organic solvents (Solubility; most organic solvents, for example alcohols and ethers): insoluble | solubility in water (salt form) (Solubility; water at high pH): about 0.7% | % RE ([1]; curly hair, 6 g 7% calcium hydroxide cream, 1:0.7 molar ratio calcium hydroxide:mucic acid, 2 g water in mucic acid salt slurry): 42% | % RE ([1]; curly hair, 6 g 7% calcium hydroxide cream, 1:0.7 molar ratio calcium hydroxide:mucic acid, 3 g water in mucic acid salt slurry): 88% | % RE ([1]; curly hair, 6 g 7% calcium hydroxide cream, 1:0.7 molar ratio calcium hydroxide:mucic acid, 4 g water in mucic acid salt slurry): 95% | % RE ([1]; curly hair, 6 g 7% calcium hydroxide cream, 1:0.7 molar ratio calcium hydroxide:mucic acid, 5 g water in mucic acid salt slurry): 98% | % RE ([1]; curly hair, 6 g 7% calcium hydroxide cream, 1:0.7 molar ratio calcium hydroxide:mucic acid, 6 g water in mucic acid salt slurry): 99% | % RE ([1]; naturally kinky hair, 30 minutes, 6 g 7% Ca(OH)2 cream, 0.36 g mucic acid, 0.27 g 50% NaOH, 3 g water, molar ratio calcium hydroxide:mucic acid 1:0.3): 54% | % RE ([1]; naturally kinky hair, 30 minutes, 6 g 7% Ca(OH)2 cream, 0.48 g mucic acid, 0.37 g 50% NaOH, 3 g water, molar ratio calcium hydroxide:mucic acid 1:0.4): 81% | % RE ([1]; naturally kinky hair, 30 minutes, 6 g 7% Ca(OH)2 cream, 0.60 g mucic acid, 0.46 g 50% NaOH, 3 g water, molar ratio calcium hydroxide:mucic acid 1:0.5): 80% | % RE ([1]; naturally kinky hair, 30 minutes, 6 g 7% Ca(OH)2 cream, 0.84 g mucic acid, 0.64 g 50% NaOH, 3 g water, molar ratio calcium hydroxide:mucic acid 1:0.7): 86% | % RE ([1]; naturally kinky hair, 30 minutes, 6 g 7% Ca(OH)2 cream, 1.19 g mucic acid, 0.9 g 50% NaOH, 3 g water, molar ratio calcium hydroxide:mucic acid 1:1): 21%

O=C([O-])CN(CCN(CC(=O)[O-])CC(=O)[O-])CC(=O)[O-].[Na+].[Na+].[Na+].[Na+] [Na4EDTA, tetrasodium EDTA]
amount of Ca(OH)2 dissolved in the solution at the end of the reaction ([2]; 3 g VERSENE 220 (0.0066 moles) in 97 g water): 0.60 g | Appearance ([2]; 0 g Ca(OH)2 added): Clear | pH ([2]; 0 g Ca(OH)2 added): 11.62 | Appearance ([2]; 0.20 g Ca(OH)2 added): Clear | pH ([2]; 0.20 g Ca(OH)2 added): 13.32 | Appearance ([2]; 0.40 g Ca(OH)2 added): Clear | pH ([2]; 0.40 g Ca(OH)2 added): 13.52 | Appearance ([2]; 0.60 g Ca(OH)2 added): Clear | pH ([2]; 0.60 g Ca(OH)2 added): 13.59 | Appearance ([2]; 0.65 g Ca(OH)2 added): Cloudy | pH ([2]; 0.65 g Ca(OH)2 added): 13.63

O=C(O)[C@@H](O)[C@H](O)[C@H](O)[C@@H](O)C(=O)O [mucic acid sodium salt]
observation upon mixing with calcium hydroxide (Solubility; mucic acid sodium salt mixed with calcium hydroxide): precipitation was observed | pH ([3]; 0.0 g calcium hydroxide added): 12.39 | pH ([3]; 0.2 g calcium hydroxide added): 13.02 | pH ([3]; 0.4 g calcium hydroxide added): 13.32 | pH ([3]; 0.6 g calcium hydroxide added): 13.46 | pH ([3]; 0.8 g calcium hydroxide added): 13.51 | pH ([3]; 1.0 g calcium hydroxide added): 13.53 | pH ([3]; 1.2 g calcium hydroxide added): 13.55
